Where “and” joins values, the source holds several entries; their conditions need not be identical. Equal values may be shown once.
Key:
sea lice = conditions: commonly adopted dose rate of 25 μg kg^−1 biomass twice weekly; cited from earlier work
[1] = orally administered; cited from earlier work
[2] = test system: sea lice, Lepeophtheirus salmonis; assay: Dose titration study: efficacy of emamectin benzoate in feed against induced sea lice infestations on Atlantic salmon; type: in vivo; conditions: for Percentage fish mortality: mortality attributed to sea lice damage, includes culled fish
Protocol: (§1) Three studies were carried out at the Institute of Aquaculture Marine Environmental Research Laboratory in Machrihanish, Scotland. Atlantic salmon, Salmo salar L., post-smolts were obtained from a disease free stock and acclimatised at the test facility.
(§2) Fish were held in replicate groups in plastic fiber tanks, each with a volume of 0.54 m^3. Each tank was supplied with natural sea water at ambient temperature (7-14° C.) and salinity (30-35 ppt), at flow rates of approximately 18 l. min^−1. The tanks were fitted with mesh screens over the water outlet to retain uneaten fish pellets. Fish were observed daily for behavior and adverse drug reactions. Fish mortalities and the occurrence of gross sea lice damage were also recorded.
(§3) Sea lice were collected during harvesting on commercial salmon farms on the west coast of Scotland. Egg strings collected from gravid female lice were incubated in sea water at ambient temperature and within a salinity range of 32-35 ppt. Once the hatched larvae reached the copepodite stage, 38-170 copepodites per fish were introduced into each of four replicate tanks of fish and the water supply to each tank was turned off for approximately three hours to allow attachment of copepodites to the fish. This was repeated 4-5 times at intervals of 3-5 days until chalimus stages I, II, III and IV were present. Chalimus numbers were evaluated at day −1 or day −2 pre-treatment, on sub-samples of fish (N=6-9 fish per tank). At this point, fish were infested with pre-adult and adult lice, by adding 5-10 lice per fish to each tank. Water supplies to each tank were turned off for around one hour until all the lice had attached to the fish. Pre-treatment lice numbers were based on a sub-sample of the total population and presented as the mean number of chalimus per fish. Fish were then randomly re-distributed from the four original tanks to each control or treatment tank, as described in the experimental design for each study, and no further infestations were carried out during or after treatment.
(§4) The basal ration was Fulmar™ (BOCM Pauls Ltd.) 3.5 or 5 mm salmon feed pellets. Emamectin benzoate was dissolved in propylene glycol and mixed with fish oil prior to top coating the feed pellets. Control feeds were prepared in the same way with propylene glycol and fish oil. Treatment was administered at nominal dose rates of 0, 25, 50 and 100 μg kg^−1 fish biomass per day, at a feed rate of 0.5% biomass, for a period of seven consecutive days (days 0-6). Actual daily feed consumption was measured in each tank by collecting the uneaten feed pellets approximately thirty minutes after administration and subtracting the number of pellets from the daily ration fed. The mean dose consumed was calculated for each group as follows: [formula] Mean feed consumption (%)×nominal dose rate (μg·kg^−1)=Mean dose consumed (μg·kg^−1)
(§5) Evaluation of sea lice numbers was carried out at 7, 14 and 21 days from the start of treatment. Fish were anaesthetised in 40 mg·l^−1 ethyl-P-aminobenzoate (benzocaine) and each fish examined under a low power microscope. Lice were identified as chalimus I-IV, pre-adult I or II and adult stages. Pre-adults and adult lice were additionally identified as males or females. The numbers of each developmental stage were recorded. Any lice which detached in the anaesthetic solution were included in the counts and reattached to the fish after transferring them to fresh seawater. The fish were returned to the holding tanks after sampling and the same fish were evaluated at days 7, 14 and 21.
The water temperature was 7-10° C. and salinity was 33-34 ppt. Pre-treatment, mean fish weights were 192 g (±30 g S.D). Emamectin benzoate was administered at nominal daily dose rates of 0, 25, 50 and 100 μg kg^−1 fish biomass. There were two replicate tanks per treatment with a sample size of 19 or 20 fish per tank. […]

[3] = test system: sea lice, Lepeophtheirus salmonis; assay: Dose confirmation study I: efficacy of emamectin benzoate in feed against induced sea lice infestations on Atlantic salmon; type: in vivo; conditions: for Percentage fish mortality: mortality attributed to sea lice damage, includes culled fish
Protocol: as §1, §2, §3, §4, §5
The water temperature was 12-14° C. and salinity was 33-35 ppt. Pre-treatment, mean fish weights were 224 g (±43 g S.D). Emamectin benzoate was administered at nominal daily dose rates of 0, 25, and 50 μg kg^−1 biomass. There were three replicate tanks per treatment with 15 fish per tank. […]

[4] = test system: sea lice, Lepeophtheirus salmonis; assay: Dose confirmation study II: efficacy of emamectin benzoate in feed against induced sea lice infestations on Atlantic salmon; type: in vivo
Protocol: as §1, §2, §3, §4, §5
The water temperature was 9-12° C. and salinity was 30-34 ppt. Pre-treatment, mean fish weights were 418.2 g (±49 g S.D). Emamectin benzoate was administered at se rates of 0 and 50 μg kg^−1 biomass. There were three replicate tanks per treatment with a sample size of 15-16 fish per tank. […]

L. salmonis = assay: All three studies summarised: oral treatment of Atlantic salmon against L. salmonis; type: in vivo, Lepeophtheirus salmonis
Protocol: as §1, §2, §3, §4, §5
Results were summarised as chalimus (chalimus stages I-IV), motile lice pre-adult and adult stages) and total lice (chalimus and motile stages combined). Data on the number of lice per fish were subjected to F-tests for homogeneity of variances and a correlation test to examine the normality of distribution. Fish weights and pre-treatment lice counts were tested by one-way ANOVA. […]

[5] = Daily observation of fish for behavior, adverse drug reactions and mortalities (three studies); type: in vivo, Atlantic salmon, Salmo salar L.; conditions: any of the doses tested (25, 50, 100 μg kg^−1 per day, 7 days in feed)
Protocol: as §2

[6] = nominal dose 25 μg·kg^−1/day (consumed 21.5) in feed Day 0-6, Day 7
[7] = nominal dose 25 μg·kg^−1/day (consumed 21.5) in feed Day 0-6, day 21
[8] = nominal dose 25 μg·kg^−1/day in feed Day 0-6, Day 14
[9] = nominal dose 25 μg·kg^−1/day in feed Day 0-6, Day 21
[10] = nominal dose 50 μg·kg^−1/day (consumed 45.0) in feed Day 0-6, Day 7
[11] = nominal dose 50 μg·kg^−1/day (consumed 45.0) in feed Day 0-6, day 21
[12] = nominal dose 50 μg·kg^−1/day in feed Day 0-6, Day 14
[13] = nominal dose 50 μg·kg^−1/day in feed Day 0-6, Day 21
[14] = nominal dose 100 μg·kg^−1/day (consumed 91.0) in feed Day 0-6, Day 7
[15] = nominal dose 100 μg·kg^−1/day (consumed 91.0) in feed Day 0-6, day 21
[16] = nominal dose 100 μg·kg^−1/day in feed Day 0-6, Day 14
[17] = nominal dose 100 μg·kg^−1/day in feed Day 0-6, Day 21
[18] = nominal dose 25 μg·kg^−1/day (consumed 20.2) in feed Day 0-6, Day 7
[19] = nominal dose 25 μg·kg^−1/day (consumed 20.2) in feed Day 0-6, day 21
[20] = nominal dose 50 μg·kg^−1/day (consumed 44.3) in feed Day 0-6, Day 7
[21] = nominal dose 50 μg·kg^−1/day (consumed 44.3) in feed Day 0-6, day 21
[22] = nominal dose 50 μg·kg^−1/day (consumed 45.7) in feed Day 0-6, Day 7
[23] = nominal dose 50 μg·kg^−1/day (consumed 45.7) in feed Day 0-6, day 21
[24] = dose rate 50 μg kg^−1, three studies

## 22,23-dihydroavermectin B1 [ivermectin]
Sea lice
  control of sea lice: some control
[1]
  levels found to be toxic: greater than 25 μg kg^−1 biomass twice weekly

## emamectin benzoate
[2]; all treatment groups (25, 50, 100 μg kg^−1), day 7
  reduction of total numbers of lice per fish compared to the control groups: 35.4-37.5%
[2]; [6]
  % Reduction relative to controls (Total lice): 36.2%
  Mean Total lice (± S.D): 32.6 ± 10.7
  Mean chalimus (± S.D): 20.9 ± 8.6
  Mean motiles (± S.D): 11.7 ± 6.0
[2]; nominal dose 25 μg·kg^−1/day (consumed 21.5) in feed Day 0-6, Day 21
  % Reduction relative to controls (Total lice): 89.8%
[2]; [7]
  Percentage of fish with no lice present (chalimus or motiles): 13.8%
  Percentage of fish with no motile lice present: 55.0%
[2]; [8]
  % Reduction relative to controls (Total lice): 70.8%
  Mean Total lice (± S.D): 13.1 ± 6.9
  Mean chalimus (± S.D): 9.7 ± 3.9
  Mean motiles (± S.D): 3.4 ± 6.4
[2]; [9]
  Mean Total lice (± S.D): 3.5 ± 2.7
  Mean chalimus (± S.D): 2.4 ± 1.9
  Mean motiles (± S.D): 1.1 ± 2.2
[2]; nominal dose 25 μg·kg^−1/day
  Percentage fish mortality: 0%
[2]; [10]
  % Reduction relative to controls (Total lice): 37.5%
  Mean Total lice (± S.D): 31.9 ± 11.4
  Mean chalimus (± S.D): 24.8 ± 10.3
  Mean motiles (± S.D): 7.1 ± 4.1
[2]; nominal dose 50 μg·kg^−1/day (consumed 45.0) in feed Day 0-6, Day 21
  % Reduction relative to controls (Total lice): 95.2%
[2]; [11]
  Percentage of fish with no lice present (chalimus or motiles): 22.5%
  Percentage of fish with no motile lice present: 87.5%
[2]; [12]
  % Reduction relative to controls (Total lice): 70.3%
  Mean Total lice (± S.D): 13.4 ± 5.9
  Mean chalimus (± S.D): 12.4 ± 3.5
  Mean motiles (± S.D): 1.0 ± 1.2
[2]; [13]
  Mean Total lice (± S.D): 1.7 and 1.7 ± 1.3
  Mean chalimus (± S.D): 1.6 ± 1.5
  Mean motiles (± S.D): 0.1 ± 0.3
[2]; nominal dose 50 μg·kg^−1/day
  Percentage fish mortality: 0%
[2]; [14]
  % Reduction relative to controls (Total lice): 35.4%
  Mean Total lice (± S.D): 33.0 ± 10.7
  Mean chalimus (± S.D): 29.0 ± 9.8
  Mean motiles (± S.D): 4.0 ± 3.6
[2]; nominal dose 100 μg·kg^−1/day (consumed 91.0) in feed Day 0-6, Day 21
  % Reduction relative to controls (Total lice): 95.8%
[2]; [15]
  Percentage of fish with no lice present (chalimus or motiles): 28.2%
  Percentage of fish with no motile lice present: 87.0%
[2]; [16]
  % Reduction relative to controls (Total lice): 66.4%
  Mean Total lice (± S.D): 15.1 ± 5.8
  Mean chalimus (± S.D): 14.1 ± 5.5
  Mean motiles (± S.D): 1.0 ± 3.2
[2]; [17]
  Mean Total lice (± S.D): 1.5 ± 1.6
  Mean chalimus (± S.D): 1.2 ± 1.2
  Mean motiles (± S.D): 0.3 ± 1.0
[2]; nominal dose 100 μg·kg^−1/day
  Percentage fish mortality: 2.5%
[2]; treated groups (25, 50, 100 μg kg^−1), day 21
  mean numbers of motile lice in the treated groups: 0.1-1.1 per fish
[3]; [18]
  % Reduction relative to controls (Total lice): 43.8%
  Mean Total lice (± S.D): 34.2 ± 15.8
  Mean chalimus (± S.D): 1.8 ± 1.7
  Mean motiles (± S.D): 32.4 ± 15.4
[3]; nominal dose 25 μg·kg^−1/day (consumed 20.2) in feed Day 0-6, Day 21
  % Reduction relative to controls (Total lice): 82% and 81.9%
[3]; [19]
  Percentage of fish with no lice present (chalimus or motiles): 3%
  Percentage of fish with no motile lice present: 6.1%
[3]; [8]
  % Reduction relative to controls (Total lice): 76.0%
  Mean Total lice (± S.D): 9.8 ± 4.4
  Mean chalimus (± S.D): 0.30
  Mean motiles (± S.D): 9.5 ± 4.4
[3]; [9]
  Mean Total lice (± S.D): 4.9 and 4.9 ± 3.1
  Mean chalimus (± S.D): 0
  Mean motiles (± S.D): 4.9 ± 3.1
[3]; nominal dose 25 μg·kg^−1/day
  Percentage fish mortality: 31%
[3]; [20]
  % Reduction relative to controls (Total lice): 53.8%
  Mean Total lice (± S.D): 28.1 ± 13.1
  Mean chalimus (± S.D): 3.2 ± 2.2
  Mean motiles (± S.D): 24.9 ± 13.2
[3]; nominal dose 50 μg·kg^−1/day (consumed 44.3) in feed Day 0-6, Day 21
  % Reduction relative to controls (Total lice): 94% and 94.3%
[3]; [21]
  Percentage of fish with no lice present (chalimus or motiles): 28.6%
  Percentage of fish with no motile lice present: 28.6%
[3]; [12]
  % Reduction relative to controls (Total lice): 88.0%
  Mean Total lice (± S.D): 4.9 ± 2.7
  Mean chalimus (± S.D): 0.6
  Mean motiles (± S.D): 4.3 ± 2.6
[3]; [13]
  Mean Total lice (± S.D): 1.6 and 1.6 ± 1.3
  Mean chalimus (± S.D): 0
  Mean motiles (± S.D): 1.6 ± 1.4
[3]; nominal dose 50 μg·kg^−1/day
  Percentage fish mortality: 27%
[3]; treated groups (25 and 50 μg kg^−1), day 7
  reduction of total mean numbers of lice compared to the control groups: 44-54%
[3]; treated groups (25 and 50 μg kg^−1), day 21
  total lice numbers lower than in the control groups: 82-94%
[4]; 50 μg kg^−1 groups, by day 21 (21% of control fish had lesions)
  cranial lesions resulting from sea lice activity: No cranial lesions
[4]; [22]
  % Reduction relative to controls (Total lice): 46% and 45.9%
  Mean Total lice (± S.D): 40.5 ± 12.2
  Mean chalimus (± S.D): 30.0 ± 11.8
  Mean motiles (± S.D): 10.5 ± 8.1
[4]; nominal dose 50 μg·kg^−1/day (consumed 45.7) in feed Day 0-6, Day 21
  % Reduction relative to controls (Total lice): 95% and 94.6%
[4]; [23]
  Percentage of fish with no lice present (chalimus or motiles): 27%
  Percentage of fish with no motile lice present: 66% and 66.3%
[4]; [12]
  % Reduction relative to controls (Total lice): 70.7%
  Mean Total lice (± S.D): 14.7 ± 5.9
  Mean chalimus (± S.D): 12.7 ± 5.7
  Mean motiles (± S.D): 2.0 ± 3.2
[4]; [13]
  Mean Total lice (± S.D): 2.1 and 2.1 ± 2.1
  Mean chalimus (± S.D): 1.5 ± 1.7
  Mean motiles (± S.D): 0.6 and 0.6 ± 1.1
[4]; nominal dose 50 μg·kg^−1/day, mortality figures include culled fish
  Percentage fish mortality: 0%
L. salmonis; 50 μg kg^−1, day 7 from the start of medication, three studies
  reduction of motile lice numbers: 58-80%
L. salmonis; [24]
  Percentage of fish with no motile lice present: ≤ 87%
  percentage of fish with no lice present of any stage: 20-30%
  reductions in sea lice numbers consistently achieved: 94-95%
L. salmonis; oral treatment of Atlantic salmon
  efficacy against the immature chalimus stages: highly effective
L. salmonis; oral treatment of Atlantic salmon, all three studies
  efficacy against the motile and chalimus stages of L. salmonis: very good efficacy
[5]
  adverse effects or fish mortality attributed to treatment: No adverse effects or fish mortality

Source: patent publication US6486128B1, “Method of using emamectin to treat fish parasites” (Schering-Plough Veterinary Corporation, priority 1999, dated 2002)
